From patent US20220340899A1, “STEREOSELECTIVE PH RESPONSIVE PEPTIDE DENDRIMERS FOR NUCLEIC ACID TRANSFECTION” (UNIVERSITÄT BERN, priority 2019, published 2022)
Bridges are numbered along the chain shown (N, C = ends). Roman numbers before positions name the chains, in order. Side-chain parts run from the residue outwards.

Key:
Cy3-siRNA = test: Dialysis of Cy3-siRNA complexes through 100 kDa cutoff membrane; assay type: binding
Experimental: Dialysis: Complexes were formed with labelled Cy3-siRNA in OptiMEM (80 μmol, 1.6 μL from a 50 μM Milli-Q water solution in 50 μL OptiMEM pH 5 or pH 7.4) and peptide dendrimers (N/P ratio of 1-10, 168-1680 μmol, 1-14 μL from a 1 mg/mL Milli-Q water solution in 50 μL OptiMEM pH 5 or pH 7.4) or L2000 (w/w ratio of 2:1, 0.218-2.128 μg, 0.218-2.128 μL from the 1 mg/mL commercial solution in 50 μL OptiMEM pH 5 or pH 7.4) and incubated at room temperature for 30 minutes (100 μL, concentration of 80-800 nM Cy3-siRNA and 1.68-16.8 μM i.e. 12-120 μg/mL peptide dendrimers or 2.66-21.28 μg/mL L2000). The complexes were then diluted in OptiMEM pH 5 or pH 7.4 to a final volume of 800 μL (final concentration of 100 nM Cy3-siRNA and 0.210-2.1 μM i.e. 1.5-15 μg/mL peptide dendrimers or 0.266-2.66 μg/mL L2000). 500 μL of the complexes were added to Amicon Ultra 0.5 mL dialysis Eppendorfs with a 100 KDa cut-off (Sigma aldrich, Buchs, CH) and centrifugated at 14000 g for 10 minutes. For the second experiment, following centrifugation, lower compartment was replaced, 500 μL of OptiMEM at pH 5 or pH 7.4 was added to the Amicon Ultra 0.5 mL dialysis Eppendorfs top compartment and centrifuged one more time at 14000 g for 10 minutes. Then, 100 μL of the dialysed solutions from before dialysis, after dialysis and supplementary wash were transferred to a TPP 96-well plate (Faust Laborbedarf AG, Schaffhausen) and fluorescence measured at λex=547 nm and λem=563 nm on a Tecan Infinite M1000 Pro plate reader.

[1] = Vesicle leakage (carboxyfluorescein from phosphatidyl choline vesicles); settings: for fluorescein release from vesicles after adding siRNA to 15 μg/mL reagent: siRNA 100 nM, N/P 10; for fluorescein release from vesicles by free dendrimer: even at 1 μg/mL
Experimental: Vesicle Leakage: Egg yolk phosphatidylcholine (EYPC, Avanti Polar Lipids, Alablaster, USA) thin lipid layer was prepared by evaporating a solution of 100 mg in 4 mL MeOH/CHCl3 (1:1) on a rotary evaporator at room temperature and then in vacuo overnight. The resulting film was hydrated with 4 mL buffer A (50 mM 5(6)-carboxyfluorescein (CF, Sigma Aldrich, Buchs, CH), 10 mM TRIS, 10 mM NaCl, pH 7.4) for 30 min, subjected to freeze-thaw cycles (7 times) and extrusion (15 times) through a polycarbonate membrane (pore size 100 nm). Extra vesicular components were removed by gel filtration (Sephadex G-50) with buffer B (10 mM TRIS, 107 mM NaCl, pH 7.4). Final concentrations: ˜ 2.5 mM EYPC; inside: 50 mM CF, 10 mM TRIS, 10 mM NaCl, pH 7.4 buffer; outside: 10 mM TRIS, 107 mM NaCl, pH 7.4 buffer.
EYPC stock solutions (10 μL) were diluted to 700-792 μL with the buffer B (10 mM TRIS, 107 mM NaCl, pH 7.4) and placed in a fluorescence cuvette, thermostated (25° C.) and gently stirred (final concentration of EYPC 31 μM, 625 μM CF, 10 mM TRIS and 107 mM NaCl). Complexes were formed with siRNA in buffer B (80 μmol, 1.6 μL from a 50 μM Milli-Q water solution in 50 μL buffer) and peptide dendrimers (N/P ratio of 10, 1680 μmol, 12 μL from a 1 mg/mL Milli-Q water solution in 50 μL buffer B) or L2000 (w/w ratio of 2:1, 2.128 μg, 2.128 μL from the 1 mg/mL commercial solution in 50 μL buffer B) and incubated at room temperature for 30 minutes (100 μL, concentration of 800 nM siRNA and 16.8 μM i.e. 120 μg/mL peptide dendrimers or 21.28 μg/mL L2000). CF efflux was monitored on an Agilent Cary Eclipse fluorescence spectrophotometer at λex=492 nm and λem=517 nm as a function of time for 360 s. At t=30 s peptide dendrimers (0.8-12 μL from a 1 mg/mL Milli-Q water stock solution), L2000 (0.8-12 μL from the 1 mg/mL commercial solution) or complexes (100 μL from the complexes solutions described above) were added to the cuvette (final concentration of 0-100 nM siRNA and 0.14-2.1 μM/1-15 μg/mL peptide dendrimers or 1-15 μg/mL L2000). At t=270 s 1.2% Triton X-100 was added to the cuvette (50 μL, 0.07% final concentration). Fluorescence intensities were normalized to fractional emission intensity I(t) using I(t)=(It−I0)/(I∞−I0) where I0 is the intensity before addition of the peptide dendrimer, I∞ is intensity at saturation after lysis by Triton X-100.

[2] = Titration by NaOH (apparent pKa); assay type: physicochemical; settings: for pKa1 (amino termini): apparent pKa, titration with 0.1 M NaOH
Experimental: Titration by NaOH: Peptide dendrimers (0.8-1 μmol, 5-7 mg) were diluted in 7-10 mL Milli-Q water (Final concentration of 100 μM) and acidified to pH 3 with 1 M HCl. Then, 0.1 M NaOH was added by step of 2 μL to the solution with a Dosimat plus (Metrohm, Zofingen, Switzerland) and pH measured on a 692 pH/ion meter (Metrohm).

Substance | siRNA release after dialysis at pH 5 and re-equilibration to pH 7.4 (Cy3-siRNA) | fluorescein release from vesicles after adding siRNA to 15 μg/mL reagent [1] | pKa1 (amino termini) [2] | fluorescein release from vesicles by free dendrimer [1] | behaviour during acid-base titration [2]
(KL)8(KKL)4(KLL)2KK(C26) [MH06] | lower | entirely blocked fluorescein release from the vesicles | – | – | –
(kl)8(kkl)4(kll)2kllll [DMH18] | released a significant amount of FAM-siRNA | – | 6.5 | – | –
(RL)8(KRL)4(KLL)2KLLLL [MH44] | very low | at least to the level observed with only 1 μg/mL free dendrimer | – | – | –
(KL)8(KKL)4(KLL)2KLLLL [MH18] | released a significant amount of FAM-siRNA | at least to the level observed with only 1 μg/mL free dendrimer | 6.5 | – | –
(KL)8(KKL)4(KLL)2KNleNleNleNle [MH40] | released a significant amount of FAM-siRNA | reduced it very strongly | – | – | –
(KL)8(KKL)4(KKL)2KLLLL [MH46] | released its siRNA | – | 6.5 | much weaker | –
(KL)8(KKL)4(KLL)2KFFF [MH22] | released a significant amount of FAM-siRNA | entirely blocked fluorescein release from the vesicles | – | – | –
(KL)8(KKL)4(KLL)2KK(C16)K(C16) [MH13] | lower | reduced it very strongly | 6.5 | – | –
(KL)8(KLL)4(KLL)2KLLLL [MH47] (I: H-KLK([Leu-Lys])LLKLLKLLLL-NH2 / II: H-KLK([Leu-Lys])LLKLL / III: H-KLK([Leu-Lys])LL / IV: H-KLK([Leu-Lys])LL; amide I:6-IV:C, I:9-II:C, II:6-III:C; SMILES CC(C)C[C@H](NC(=O)[C@H](CC(C)C)NC(=O)[C@H](CC(C)C)NC(=O)[C@H](CC(C)C)NC(=O)[C@H](CCCCNC(=O)[C@H](CC(C)C)NC(=O)[C@H](CC(C)C)NC(=O)[C@H](CCCCNC(=O)[C@H](CC(C)C)NC(=O)[C@H](CC(C)C)NC(=O)[C@H](CCCCNC(=O)[C@H](CC(C)C)NC(=O)[C@@H](N)CCCCN)NC(=O)[C@H](CC(C)C)NC(=O)[C@@H](N)CCCCN)NC(=O)[C@H](CC(C)C)NC(=O)[C@H](CC(C)C)NC(=O)[C@H](CCCCNC(=O)[C@H](CC(C)C)NC(=O)[C@@H](N)CCCCN)NC(=O)[C@H](CC(C)C)NC(=O)[C@@H](N)CCCCN)NC(=O)[C@H](CC(C)C)NC(=O)[C@H](CC(C)C)NC(=O)[C@H](CCCCNC(=O)[C@H](CC(C)C)NC(=O)[C@H](CC(C)C)NC(=O)[C@H](CCCCNC(=O)[C@H](CC(C)C)NC(=O)[C@@H](N)CCCCN)NC(=O)[C@H](CC(C)C)NC(=O)[C@@H](N)CCCCN)NC(=O)[C@H](CC(C)C)NC(=O)[C@H](CC(C)C)NC(=O)[C@H](CCCCNC(=O)[C@H](CC(C)C)NC(=O)[C@@H](N)CCCCN)NC(=O)[C@H](CC(C)C)NC(=O)[C@@H](N)CCCCN)C(N)=O) | very low | – | 6.5 | much weaker | precipitated during acid-base titration
(kl)8(kkl)4(kll)2kk(C16)k(C16) [DMH13] | lower | reduced it very strongly | 6.5 | – | –
